Data on 1 compound can be found in patent publication US20080260637A1, “Methods of Detecting Prostate Cancer” (priority 2004, published 2008).

One assay relates to mitochondria. The note with it: energy dependent manner; cited from earlier work.
Assay [1] has as its system prostate cancer tumor areas. Nature of the assay: SPECT imaging of excised intact prostate after intravenous Tc^99Sestamibi, compared with whole mount histopathology. The conditions noted are these: 25mCi i.v. 1-2 hours prior to prostate excision; ex-vivo SPECT of intact prostate; two patients shown. Format: in vivo, human. On the procedure:
Twelve prostate cancer patients were intravenously administered with 25mCi Tc^99Sestamibi 1-2 hours prior to prostate excision. Intact prostates were excised using surgical procedures (Radical Retro pubic Prostatectomy, Radical Cystectomy or Open Prostatectomy)—illustrated in FIG. 3. The intact prostate was imaged by SPECT using a standard dual head gamma camera (millennium, GE) 6° angular step and 40 sec/step. Imaging results were reviewed using both transaxial (FIGS. 4I-N and FIGS. 5C-D) and coronal views (FIGS. 4O-T and FIG. 5E). The nuclear images were processed automatically. The designated green lines seen in FIGS. 4I-M and 4O-R and 5C and 5E were produced following an automatic search for maximal intensity voxel. Contours were determined at 90% maximal intensity. Following imaging, prostate tissue was sliced transversely from bladder neck (base) to apex. Whole mount histopathology was carried out as described in Example 1.

For `[C-]#[N+]CC(C)(C)OC.[C-]#[N+]CC(C)(C)OC.[C-]#[N+]CC(C)(C)OC.[C-]#[N+]CC(C)(C)OC.[C-]#[N+]CC(C)(C)OC.[C-]#[N+]CC(C)(C)OC.[Tc]` [Tc^99Sestamibi], the “fraction of agent taken up by mitochondria” value in the assay with mitochondria is on record as “more than 90%”. In addition, in assay [1], the “identification of tumor areas by SPECT scanning” value is reported as “identified tumor areas as corroborated by whole mount histopathology”.
